# Assay results reported in ChEMBL document CHEMBL1151721, “Fagraldehyde, a secoiridoid isolated from Fagraea fragrans” (J Nat Prod, 2008).
# Test system: Plasmodium falciparum
# Experiment: Antiplasmodial activity against chloroquine-resistant Plasmodium falciparum W2 by FACS
# Type: functional, organism-based
row,Compound,IC50 [µg/mL]
1,CC1OC(=O)C(C=O)=C2C=COC=C21 (centres undefined) [FAGRALDEHYDE],22.4
2,C=C[C@@H]1C2=CCOC(=O)C2=CO[C@H]1O[C@@H]1O[C@H](CO)[C@@H](O)[C@H](O)[C@H]1O [GENTIOPICROSIDE],> 50
3,C=C[C@H]1[C@H](O[C@@H]2O[C@H](CO)[C@@H](O)[C@H](O)[C@H]2O)OC=C2C(=O)OCC[C@H]21 [SWEROSIDE],> 50
4,C=C[C@H]1[C@H](O[C@@H]2O[C@H](CO)[C@@H](O)[C@H](O)[C@H]2O)OC=C2C(=O)OCC[C@]21O [SWERTIAMARIN],> 50
